Results on one substance are retold here after patent US20070274947A1, “Antisense Oligonucleotides Directed to Ribonucleotide Reductase R1 and Uses Thereof in the Treatment of Cancer” (priority 2003, published 2007).

Series [1] is described as follows: Tissue distribution after continuous infusion in rats. As to conditions: rat. The series is classed as in vivo.
The nature of series [2]: Acute intravenous toxicity study in rats (24-hour infusion). The settings on record: rat. The series is classed as in vivo, Sprague-Dawley rats. The text has this: The purpose of this study was to assess the adverse effects of SEQ ID NO:1 when administered as a single intravenous dose to Sprague-Dawley rats. […] Parameters assessed included mortality, clinical observations, body weight and food consumption assessment, clinical pathology and urinalysis measurements, and gross examination at necropsy.

The next series has as its system H460 (lung). The experiment in a line: Colony forming ability, H460. As to conditions: 0.2 μM antisense oligonucleotide/lipofectin, 4 hours. The class given is cell-based, human. Here is the method:
The effect of SEQ ID NO:1 on the colony forming ability were evaluated in the following human tumor cell lines:
Tumor cells were washed in 5 ml of phosphate buffered saline, pH 7.2, prior to 0.2 μM antisense oligonucleotide/lipofectin treatment for 4 hours. The medium was removed and the cells were gently washed with 5 ml of growth medium. The cells were then cultured in growth medium for seven to ten days. Surviving colonies were visualized by methylene blue staining and colonies of 50 or more cells were scored (Choy et al., 1988 and Huang and Wright, 1994). Results are summarized from 4 to 8 trials for each tumor cell line.

Series [3] has as its system R1 mRNA. The series is described as follows: Northern blot of R1 mRNA in HT-29 cells. The series is classed as cell-based, human. The settings on record: 0.2 μM, four hours with Lipofectin, 16 hours recovery. The method, then: Total RNA was isolated using TRIzol reagent (GIBCO BRL) after cells were treated with 0.2 μM SEQ ID NO:1 for four hours in the presence of cationic lipid (Lipofectin reagent, GIBCO BRL), washed with PBS, and incubated for 16 hours to recover in normal medium containing 10% FBS. Northern blot analysis was performed as previously described (Hurta and Wright, 1995). RNA was subjected to electrophoresis through 1% formaldehyde agarose gels followed by transfer to nylon membranes. Blots were hybridized in the presence of a R1 fragment (McClarty et al, 1987). Glyceraldehyde-3-phosphate dehydrogenase (GAPDH) mRNA levels were simultaneously probed for RNA loading controls.

Series [4] has as its system R1 mRNA. The experiment in a line: Northern blot of R1 mRNA in A2058 human melanoma cells. The class given is cell-based. The settings on record: 0.2 μM, 4 hr with Lipofectin. Here is the method:
A2058 human melanoma cells, grown to subconfluency (70-80%), were treated with 0.2 μM of phosphorothioate antisense ODNs for 4 hr in the presence of cationic lipid (Lipofectin reagent, final concentration, 5 μg/ml, GIBCO BRL) and Opti-MEM (GIBCO BRL). Cells were washed once with PBS and incubated for 16 hr in α-MEM medium (GIBCO BRL) containing 10% FBS. Total RNA was prepared in TRIzol reagent (GIBCO BRL) and northern blot analysis was performed as previously described (Hurta and Wright, J. Cell. Biochem. 57: 543-56, 1995) with some modifications. RNA prepared from cells treated with lipofectin alone (Control), SEQ ID NO:1 and scrambled control analogue (SEQ ID NO:1 Scr) were subjected to electrophoresis through 1% formaldehyde agarose gels followed by transfer to nylon membrane. The blots were hybridized with ^32P-labeled probes that detect R1 mRNA, 28S rRNA, 18S rRNA, thioredoxin mRNA, […], GAPDH mRNA, thioredoxin reductase mRNA, ribosomal protein S9 mRNA, RNase MRP RNA, RNase P RNA and R2 mRNA.

The test system of the next series is human tumors. The experiment in a line: In vivo primary pharmacology, human tumors in mouse models.
The test system of series [5] is C8161 human metastatic melanoma cells. The series is described as follows: Experimental metastasis of C8161 cells, in vivo treatment (lung nodules, SCID mice). As to conditions: 10 mg/kg/48 hr from day 2, 5-7 weeks. The method, then:
B. C8161 human metastatic melanoma cells were seeded into 100 mm tissue culture dishes at a density of 2×10^6 and incubated overnight at 37° C. in α-MBM medium supplemented with 10% FBS. The cells were trypsinized, collected by centrifugation and aliquots were removed from the suspension to determine the cell viability using trypan blue exclusion test. Approximately, 1×10^5 cells suspended in 0.1 ml of PBS were injected into the tail veins of 6-8 week old female SCID mice. Treatment with saline or 10 mg/kg/48 hr SEQ ID NO:1 or SEQ ID NO:1-SCR (scrambled control) was initiated after 2 days. Estimates of the number of lung nodules were made 5-7 weeks later, after excised lungs from individual mice were stained with picric acid dye solution (75% picric acid, 20% formaldehyde, 5% glacial acetic acid), see FIG. 12B. The bars represent the mean number of nodules per mouse with standard error.

Series [6] deals with Human taxol-resistant promyelocytic leukemia cells (HL-60). The experiment in a line: Taxol-resistant promyelocytic leukemia (HL-60) growth in SCID mice. The series is classed as in vivo. As to conditions: SEQ ID NO:1 10 mg/kg i.v. every other day, taxol 10 mg/kg i.p. once a week. Here is the method: Human taxol-resistant promyelocytic leukemia cells (HL-60) (7×10^6 cells in 100 μl of PBS) were injected into the right flank of 6-7 weeks old female SCID mice. After the size of tumor reached an approximate volume of 100 mm^3, 10 days post tumor cell injection, SEQ ID NO:1 was administered by bolus infusion into the tail vein every other day at 10 mg/kg. Control animals received saline alone for the same period. The anti-tumor effect of SEQ ID NO:1 was further compared to that of taxol. Taxol was administered i.p. once a week at a dose of 10 mg/kg. Anti-tumor activity was estimated by the inhibition of tumor volume, which was measured with caliper (FIG. 17A). Each point represents mean tumor volume calculated from 10 animals per experimental group. In addition animals were sacrificed and tumor weights taken at the end of the study.

For series [7] the following is noted: rat, in vivo.

“Also recorded” adds a separate entry of the source.

“5′-CTCTAGCGTCTTAAAGCCGA-3′ (CTCTAGCGTCTTAAAGCCGA; chemistry not given here) [SEQ ID NO:1]”: in series [1], the “levels in the brain” value was “very low or below the limits of detection; also recorded: undetectable”; the “tissue concentrations, rank order” value was “kidney>liver>spleen>lymph node (monkey)>lung (monkey)>heart; also recorded: highest in the kidney followed by the liver, spleen and heart”. Further, the toxicological effects entry in series [2] (24-hour continuous i.v. infusion, 40 mg/kg/day) is “toxicological effects were not observed”. Also, the “test article related effects” value in series [2] (24-hour continuous i.v. infusion, 60, 80 and 90 mg/kg) is given as “some test article related effects were found”. Besides, in the series with H460 (lung), the “inhibition in colony forming ability” value was “greater than 60%”. For the same substance, in the series with R1 mRNA [3], the “R1 mRNA level” value is “specifically decreases R1 mRNA; also recorded: significant decrease; also recorded: decreased R1 mRNA levels”. The “R1 mRNA expression” value in the series with R1 mRNA [4] was “significant decrease; also recorded: significantly decrease expression of R1mRNA”. The “efficacy in tumor xenograft experiments” value in the series on human tumors (SCID mice that are T and B cell deficient) is listed as “highly effective”. The “growth of human tumors in mouse models” value with human tumors (doses of 1.0 to 10 mg/kg/day) is recorded as “significantly inhibited the growth”. For the same substance, the “number of lung nodules” value in series [5] is on record as “no visible lung nodules”. In addition, the “tumor growth / tumor weight” value in series [6] was “significant reduction of tumor weight”. In series [7], the “elimination from plasma (profile)” value was “biphasic”; the “measurable in plasma post dose” value is reported as “up to 24 h”; the “plasma levels (AUC and Cmax) versus dose” value is “increased in proportion to administered dose”. Moreover, in series [7] (iv), the “time of Cmax / maximum concentration post dose” value turned out to be 5 min. Also, in series [7] (iv, 50 mg/kg), the “apparent terminal elimination phase t1/2” value is 4.72 to 5.80 h and the plasma clearance is reported as 49.67-43.30 mL/kg·h.
